Reference: patent US9062088B2, “CDK-inhibiting pyrrolopyrimidine carboxamide derivative or pharmaceutically acceptable salt thereof, and pharmaceutical composition containing the same as active ingredient for preventing or treating hepatocellular carcinoma” (SNU R&DB Foundation, priority 2010, dated 2015)

Assays:
[1] = test system: SNU-354 xenografted tumor; assay: SNU-354 cancer xenograft, tumor growth; type: in vivo; settings: 5 times/week for 3 weeks, nude mice
Description: (§1) Male nude mice at 5˜6 weeks were purchased from Central Lab. Animal Inc. (Republic of Korea). The mice were raised in the test animal laboratory at College of Pharmacy, Seoul National University. All the experiments with test animals were performed by the protocol set by Institute of Laboratory Animal Resources, Seoul National University. 1×10^7 cells of the human hepatocellular carcinoma cell line SNU-354 were suspended in 200 μl of PBS, which was injected into the right front paw of the mouse by subcutaneous injection, followed by observation until the xenograft tumor grew to 100±30 mm^3. The mice having tumors reaching the proper size were divided into three groups (n=8). One of the groups was used as the control (treated with vehicle) and the other two groups were treated with the compound of Example 2 at the concentrations of 4 mg/kg and 20 mg/kg respectively, once a day for 3 weeks (5 times/week) by intraperitoneal injection. The control group was treated with 5% ethanol and 30% polyethylene glycol 200 (Fluka, Netherlands). The administration schedule was marked on data. Tumor size, body weight and other conditions of the animal were observed every day until the tumor size reached 2000 mm^3. The tumor size was calculated by V=a×b×c×π/6 (a=long axis of the tumor, b=short axis of the tumor, c=height of the tumor). 33 days after the treatment, the mice were sacrificed. […]

Cdk2/cyclin A = biological target: T1, Cdk2/cyclin A (Homo sapiens, UniProt P24941); assay: In vitro kinase activity assay, histone H1 phosphorylation by Cdk2/cyclin A; type: biochemical; settings: for Phosphorylation (%) Cdk2: 0 nM = 100%
T1 construct: purchased Upstate
Description: To kinase assay buffer (50 mM Tris (pH 7.4), 10 mM magnesium chloride, 1 mM EGTA, 40 mM β-glycerophosphate, 0.1 mM Na3VO4, 1 mM DTT, 0.1 μg/mL leupeptin, 0.1 μg/mL pepstatin A, 0.1 μg/mL antipain and 1 mM phenylmethylsulfonyl fluoride) were added 5 μg histone H1 as a substrate, 20 ng Cdk1/cyclin B or 40 ng Cdk2/cyclin A recombinant protein (Upstate, NY, USA) as an enzyme, 2.5 μCi [γ-32P]ATP, and 100 μM MgAc/ATP. The total reaction volume was adjusted to 50 μl. The compound of Example 2 was added to the reaction mixture, followed by inducing kinase reaction at 30° C. for 20 minutes. Upon completion of the reaction, the reaction mixture proceeded to electrophoresis on 12% SDS-polyacrylamide gel. Phosphorylation levels of Cdk1 and Cdk2 over the concentrations of the compound of Example 2 were confirmed by autoradiography, and the results are shown in FIG. 1, FIG. 2, and Table 1.
The intensity of bands was analyzed by densitometry (GS-800, Bio-Rad).

normal liver tissues = assay: TUNEL assay and caspase-3 immunohistochemistry of normal liver tissues; type: in vivo, nude mice; settings: treated mice; FIG. 23-B
Description: All the xenografted tumors and liver tissues extracted above were fixed in 36% formaldehyde solution (Junsei Chemical Co., Ltd, Tokyo, JAPAN), followed by paraffin embedding. The embedded tissues were cut into 5 μm sections. H&E staining and TUNEL assay were performed for examining apoptosis with those sections. The expression of cleaved caspase-3 in the tissue section was measured by using cleaved caspase-3 monoclonal antibody (Cell Signaling, MA, USA). ABC peroxidase (Dako Cytomation California, Inc., CA, USA) labeling was performed for immunological sensitization and the results are shown in FIG. 23. As shown in FIG. 23-A, TUNEL positive spots and caspase-3 positive spots were observed more in the group treated with the compound of Example 2 than in the control. […] As shown in FIG. 23-B, it was investigated whether or not the compound of Example 2 could affect normal liver tissues.

p-Nucleolin (Cdk1) = assay: Western blotting of p-nucleolin (Cdk1) in SNU-354 cells; type: cell-based, human
Description: SNU-354 cells were cultured in RPMI 1640 (Invitrogen, CA, USA) supplemented with 10% FBS (Invitrogen) and antibiotics/antimycotics (Invitrogen) in a 5% CO2 incubator at 37° C. […]
After treating the compound of Example 2 to SNU-354 cells, cell pellet was lysed with lysis buffer (0.5% triton X-100, 20 mM Tris-HCl (pH 7.5), 2 mM magnesium chloride, 1 mM DTT, 1 mM EGTA, 50 mM β-glycerophosphate, 25 mM sodium fluoride, 1 mM Na3VO4, 2 μg/mL leupeptin, 2 μg/mL pepstatin A, 100 μg/mL phenylmethylsulfonyl fluoride, and 1 μg/mL antipain) at 4° C. for 1 hour, followed by quantification of protein. A proper amount of protein was electrophoresed on SDS-PAGE gel and then transferred onto polyvinylidene difluoride membrane (Millipore Co., Bedford, Mass.). The membrane was reacted in inhibiting solution (PBS, 5% skim milk, 0.1% tween-20) at room temperature for 1˜2 hours. The membrane was reacted with the primary antibody (goat anti-phospho-Rb, rabbit anti-nucleolin) diluted in the inhibiting solution (1:1000). Then, the membrane was washed with PBST, followed by reaction with the proper secondary antibody (horseradish peroxidase (HRP) conjugated) at room temperature for 1 hour.

[2] = Body weight of xenograft mice; type: in vivo, nude mice; settings: 4 mg/kg and 20 mg/kg intraperitoneal; FIG. 21
Description: as §1

Phosphorylation (%) Cdk2 (Cdk2/cyclin A; 10 nM): 86.5% | Phosphorylation (%) Cdk2 (Cdk2/cyclin A; 20 nM): 75.0% | Phosphorylation (%) Cdk2 (Cdk2/cyclin A; 40 nM): 59.0% | Phosphorylation (%) Cdk2 (Cdk2/cyclin A; 50 nM): 50% | Phosphorylation (%) Cdk2 (Cdk2/cyclin A; 60 nM): 43.0% | Phosphorylation (%) Cdk2 (Cdk2/cyclin A; 80 nM): 39.2% | Phosphorylation (%) Cdk2 (Cdk2/cyclin A; 100 nM): 4.5% | IC50 (Cdk2/cyclin A; histone H1 phosphorylation): 0.05 µM
Structure (SMILES): CC(C)C(=O)OC[C@@H]1O[C@H](n2cnc(N)c3c(C(N)=O)c(Br)nc2-3)[C@H](O)[C@H]1O [Example 2, ((2S,3R,4R,5S)-5-(4-amino-6-bromo-5-carbamoyl-1H-pyrrolo[2,3-d]pyrimidin-1-yl)-3,4-dihydroxy-tetrahydrofuran-2-yl)methyl isobutyrate]
growth of the tumor reduced at average, compared with the control ([1]; 4 mg/kg/day intraperitoneal): 15% | growth of the tumor reduced at average, compared with the control ([1]; 20 mg/kg/day intraperitoneal): 47% | apoptosis in normal liver tissues (TUNEL, caspase-3 immunohistochemistry) (normal liver tissues): apoptosis was not observed at all | Phosphorylation (%) p-Nucleolin (Cdk1) (p-Nucleolin (Cdk1); treatment time 6 (hours)): 96.9% | Phosphorylation (%) p-Nucleolin (Cdk1) (p-Nucleolin (Cdk1); treatment time 12 (hours)): 11.7% | Phosphorylation (%) p-Nucleolin (Cdk1) (p-Nucleolin (Cdk1); treatment time 18 (hours)): 3.1% | Phosphorylation (%) p-Nucleolin (Cdk1) (p-Nucleolin (Cdk1); treatment time 24 (hours)): 3.0% | weight change of test animals [2]: no weight change
